A short description of data set [1]: H+/Na+ transport assay of bead-derived peptides (one-point).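 Also: relative to parent gramicidin A activity set to 1.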 Format: biochemical. Also noted: key: relative activity; mean of two control wells = 1.00. Conditions: bead-derived peptide solution, EYPC/EYPG LUVs. The essentials:
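Miniaturized 96-well format. LUVs with entrapped pyranine (1.0 mM) were exposed to peptide for 30 min at RT. Intensities were expressed relative to full lysis by Triton X-100 and no treatment, with control-well mean = 1.00.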

Data set [2] has as its system P388 mouse leukemia cells. Conditions: 92 h. Summed up:
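Peptide stocks diluted 250× in growth medium; P388 cells 1 × 10^4 cells/mL final; 37 °C, 5% CO2, 92 h. WST-1 + 1-methoxy PMS, 4 h, A415. Output: % viability.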

The test system of data set [3] is Streptococcus pyogenes SSI-9. In words: Antibacterial activity assay of bead-derived peptides (three concentrations). Format: cell-based. Also noted: key: +++: inhibition by the 640-fold diluted peptide solution; ++: inhibition by the 160-fold diluted solution; +: inhibition by the 40-fold diluted solution; -: no inhibition. Conditions: S. pyogenes, bead-derived peptide solution, three concentrations. Summed up:
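Growth inhibition scored visually as precipitated bacteria after 37 °C, 18 h incubation. Streptococcus pyogenes SSI-9 inoculum of 2 × 10^5 CFU in Ca2+/Mg2+-adjusted Mueller Hinton broth plus 5% laked horse blood; peptides tested at three levels: stock, 4-fold and 16-fold DMSO dilutions.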

Where a SMILES comes first, the peptide text is derived from it. [ ]: non-standard residue; d: D form. The star is where a group is joined. NHCH2CH2OH = OCCN*; For = O=C*

For `CC(C)C[C@@H](NC(=O)[C@H](C)NC(=O)CNC(=O)[C@@H](NC=O)C(C)C)C(=O)N[C@@H](C)C(=O)N[C@H](CC(C)C)C(=O)N[C@H](C(=O)N[C@@H](C(=O)N[C@@H](Cc1c[nH]c2ccccc12)C(=O)N[C@@H](C(=O)N[C@@H](Cc1c[nH]c2ccccc12)C(=O)N[C@@H](C(=O)N[C@@H](Cc1c[nH]c2ccccc12)C(=O)N[C@H](CC(C)C)C(=O)N[C@@H](Cc1c[nH]c2ccccc12)C(=O)NCCO)[C@H](C)O)C(C)C)C(C)C)C(C)C` [compound 6876] (For-VGA[dL]A[dL]V[dV]W[dV]W[dT]W[dL]W-NHCH2CH2OH), the “H+/Na+ transport activity normalized against the value of 1 (1.00)” value (from here on “H+/Na+ transport activity normalized”) in data set [1] is listed as 1.13. This compound returned a cell viability/% in data set [2] of 100.0%. Besides, the antibacterial activity entry in data set [3] was “-”.
For `CC(C)C[C@@H](NC(=O)[C@H](C)NC(=O)[C@H](NC(=O)[C@H](C)NC(=O)CNC(=O)[C@@H](NC=O)C(C)C)C(C)C)C(=O)N[C@H](C(=O)N[C@@H](C(=O)N[C@@H](Cc1c[nH]c2ccccc12)C(=O)N[C@H](CC(C)C)C(=O)N[C@@H](Cc1c[nH]c2ccccc12)C(=O)N[C@@H](C(=O)N[C@@H](Cc1c[nH]c2ccccc12)C(=O)N[C@@H](C(=O)N[C@@H](Cc1c[nH]c2ccccc12)C(=O)NCCO)C(C)C)C(C)C)C(C)C)C(C)C` [compound 6888] (For-VGA[dV]A[dL]V[dV]W[dL]W[dV]W[dV]W-NHCH2CH2OH), the “H+/Na+ transport activity normalized” value in data set [1] came out at 1.23. In data set [2], this compound yielded a cell viability/% of 78.6%. Besides, the antibacterial activity entry in data set [3] was “+”.
As to `CNC(=O)C[C@@H](NC(=O)[C@H](Cc1c[nH]c2ccccc12)NC(=O)[C@H](NC(=O)[C@@H](NC(=O)[C@@H](CC(C)C)NC(=O)[C@H](C)NC(=O)[C@@H](CC(C)C)NC(=O)[C@H](C)NC(=O)CNC(=O)[C@@H](NC=O)C(C)C)C(C)C)C(C)C)C(=O)N[C@@H](Cc1c[nH]c2ccccc12)C(=O)N[C@H](CC(C)C)C(=O)N[C@@H](Cc1c[nH]c2ccccc12)C(=O)N[C@@H](C(=O)N[C@@H](Cc1c[nH]c2ccccc12)C(=O)NCCO)C(C)C` [compound 6889] (For-VGA[dL]A[dL]V[dV]W[dD](NHMe)W[dL]W[dV]W-NHCH2CH2OH), the “H+/Na+ transport activity normalized” value in data set [1] came out at 1.10. In addition, in data set [2], the cell viability/% is 100.0%. Further, in data set [3], the antibacterial activity entry is listed as “-”.
For `CNC(=O)C[C@@H](NC(=O)[C@@H](NC(=O)[C@H](NC(=O)[C@H](C)NC(=O)[C@H](NC(=O)[C@H](C)NC(=O)CNC(=O)[C@@H](NC=O)C(C)C)C(C)C)C(C)C)C(C)C)C(=O)N[C@@H](Cc1c[nH]c2ccccc12)C(=O)N[C@H](CC(C)C)C(=O)N[C@@H](Cc1c[nH]c2ccccc12)C(=O)N[C@H](CC(C)C)C(=O)N[C@@H](Cc1c[nH]c2ccccc12)C(=O)N[C@@H](C(=O)N[C@@H](Cc1c[nH]c2ccccc12)C(=O)NCCO)C(C)C` [compound 6899] (For-VGA[dV]A[dV]V[dD](NHMe)W[dL]W[dL]W[dV]W-NHCH2CH2OH), in that order: 1.12, 100.0% and “-”.
For `CC(C)C[C@@H](NC(=O)[C@H](C)NC(=O)[C@H](NC(=O)[C@H](C)NC(=O)CNC(=O)[C@@H](NC=O)C(C)C)C(C)C)C(=O)N[C@H](C(=O)N[C@H](CC(C)C)C(=O)N[C@@H](Cc1c[nH]c2ccccc12)C(=O)N[C@H](CC(C)C)C(=O)N[C@@H](Cc1c[nH]c2ccccc12)C(=O)N[C@@H](C(=O)N[C@@H](Cc1c[nH]c2ccccc12)C(=O)N[C@@H](C(=O)N[C@@H](Cc1c[nH]c2ccccc12)C(=O)NCCO)[C@H](C)O)C(C)C)C(C)C` [compound 6943] (For-VGA[dV]A[dL]V[dL]W[dL]W[dV]W[dT]W-NHCH2CH2OH), in that order: 1.02, 100.0% and “-”.
For the compound `CC(C)C[C@@H](NC(=O)[C@H](C)NC(=O)CNC(=O)[C@@H](NC=O)C(C)C)C(=O)N[C@@H](C)C(=O)N[C@H](CC(C)C)C(=O)N[C@H](C(=O)N[C@@H](C(=O)N[C@@H](Cc1c[nH]c2ccccc12)C(=O)N[C@@H](C(=O)N[C@@H](Cc1c[nH]c2ccccc12)C(=O)N[C@@H](C(=O)N[C@@H](Cc1c[nH]c2ccccc12)C(=O)N[C@H](CC(C)C)C(=O)N[C@@H](Cc1c[nH]c2ccccc12)C(=O)NCCO)C(C)C)[C@H](C)O)C(C)C)C(C)C` [compound 6950] (For-VGA[dL]A[dL]V[dV]W[dT]W[dV]W[dL]W-NHCH2CH2OH), the “H+/Na+ transport activity normalized” value in data set [1] was determined as 1.06. This compound returned a cell viability/% in data set [2] of 100.0%. Besides, the antibacterial activity entry in data set [3] is given as “-”.
Regarding `CC(C)C[C@@H](NC(=O)[C@H](C)NC(=O)[C@H](NC(=O)[C@H](C)NC(=O)CNC(=O)[C@@H](NC=O)C(C)C)[C@H](C)O)C(=O)N[C@H](C(=O)N[C@H](CC(C)C)C(=O)N[C@@H](Cc1c[nH]c2ccccc12)C(=O)N[C@@H](C(=O)N[C@@H](Cc1c[nH]c2ccccc12)C(=O)N[C@@H](C(=O)N[C@@H](Cc1c[nH]c2ccccc12)C(=O)N[C@H](CC(C)C)C(=O)N[C@@H](Cc1c[nH]c2ccccc12)C(=O)NCCO)C(C)C)[C@H](C)O)C(C)C` [compound 7015] (For-VGA[dT]A[dL]V[dL]W[dT]W[dV]W[dL]W-NHCH2CH2OH), the “H+/Na+ transport activity normalized” value in data set [1] is 1.07. Also, in data set [2], the cell viability/% amounted to 100.0%. Further, in data set [3], the antibacterial activity result is listed as “-”.
For `CC(C)C[C@@H](NC(=O)[C@H](C)NC(=O)CNC(=O)[C@@H](NC=O)C(C)C)C(=O)N[C@@H](C)C(=O)N[C@H](CC(C)C)C(=O)N[C@H](C(=O)N[C@@H](C(=O)N[C@@H](Cc1c[nH]c2ccccc12)C(=O)N[C@@H](C(=O)N[C@@H](Cc1c[nH]c2ccccc12)C(=O)N[C@H](CC(C)C)C(=O)N[C@@H](Cc1c[nH]c2ccccc12)C(=O)N[C@H](CC(C)C)C(=O)N[C@@H](Cc1c[nH]c2ccccc12)C(=O)NCCO)[C@H](C)O)C(C)C)C(C)C` [compound 7067] (For-VGA[dL]A[dL]V[dV]W[dT]W[dL]W[dL]W-NHCH2CH2OH), in data set [1], the “H+/Na+ transport activity normalized” value stood at 1.02. In data set [2], this compound displayed a cell viability/% of 100.0%. In data set [3], the antibacterial activity result was “-”.
Turning to `CC(C)C[C@@H](NC(=O)[C@H](C)NC(=O)CNC(=O)[C@@H](NC=O)C(C)C)C(=O)N[C@@H](C)C(=O)N[C@H](CC(C)C)C(=O)N[C@H](C(=O)N[C@@H](C(=O)N[C@@H](Cc1c[nH]c2ccccc12)C(=O)N[C@@H](C(=O)N[C@@H](Cc1c[nH]c2ccccc12)C(=O)N[C@@H](C(=O)N[C@@H](Cc1c[nH]c2ccccc12)C(=O)N[C@@H](C(=O)N[C@@H](Cc1c[nH]c2ccccc12)C(=O)NCCO)C(C)C)C(C)C)C(C)C)C(C)C)C(C)C` [compound 7100] (For-VGA[dL]A[dL]V[dV]W[dV]W[dV]W[dV]W-NHCH2CH2OH), the “H+/Na+ transport activity normalized” value in data set [1] stood at 1.07. This compound had a cell viability/% in data set [2] of 100.0%. The antibacterial activity entry in data set [3] is given as “-”.
